# Results from patent publication US20250195521A1 (Revolution Medicines, Inc., priority 2020, published 2025).
# pIC50: −log10 of the molar value. Where two headings read alike, the source gives them in different places.
# Assays:
# [1] = molecular target: KRAS G12S (Homo sapiens (Human), UniProt P01116+P62937, G12S); experiment: Ras-Raf disruption/FRET/MOA assay (BRAF RBD, Cyclophilin A); type: biochemical
# Experimental: (§1) Compound is present in plate wells as a 10-point 3-fold dilution series starting at a final concentration of 30 μM. After incubation at 25° C. for 3 hours, a mixture of Anti-His Eu—W1024 and anti-GST allophycocyanin is then added to assay sample wells at final concentrations of 10 nM and 50 nM, respectively, and the reaction incubated for an additional 1.5 hours. […] Compounds that facilitate disruption of a Ras: RAF complex are identified as those eliciting a decrease in the TR-FRET ratio relative to DMSO control wells.
# (§2) Disruption of B-Raf Ras-Binding Domain (BRAF^RBD) Interaction with K-Ras by Compounds of the Invention (Also Called a FRET Assay or an MOA Assay)
# (§3) Note—The following protocol describes a procedure for monitoring disruption of K-Ras G12C (GMP-PNP) binding to BRAF^RBD by a compound of the invention. This protocol may also be executed substituting other Ras proteins or nucleotides.
# (§4) The purpose of this biochemical assay was to measure the ability of test compounds to facilitate ternary complex formation between a nucleotide-loaded K-Ras isoform and Cyclophilin A; the resulting ternary complex disrupts binding to a BRAF^RBD construct, inhibiting K-Ras signaling through a RAF effector. Data is reported as IC50 values.
# (§5) In assay buffer containing 25 mM HEPES pH 7.3, 0.002% Tween20, 0.1% BSA, 100 mM NaCl and 5 mM MgCl2, tagless Cyclophilin A, His6-K-Ras-GMPPNP, and GST-BRAF^RBD were combined in a 384-well assay plate at final concentrations of 25 μM, 12.5 nM and 50 nM, respectively. Compound was present in plate wells as a 10-point 3-fold dilution series starting at a final concentration of 30 μM. After incubation at 25° C. for 3 hours, a mixture of Anti-His Eu—W1024 and anti-GST allophycocyanin was then added to assay sample wells at final concentrations of 10 nM and 50 nM, respectively, and the reaction incubated for an additional 1.5 hours. […] Compounds that facilitate disruption of a K-Ras: RAF complex were identified as those eliciting a decrease in the TR-FRET ratio relative to DMSO control wells.
# [2] = molecular target: KRAS G13C (Homo sapiens (Human), UniProt P01116+P62937, G13C); experiment: as above; type: biochemical
# KRAS G13C, sequence (P01116 other isoform, or with tags, fused parts or gaps G13C): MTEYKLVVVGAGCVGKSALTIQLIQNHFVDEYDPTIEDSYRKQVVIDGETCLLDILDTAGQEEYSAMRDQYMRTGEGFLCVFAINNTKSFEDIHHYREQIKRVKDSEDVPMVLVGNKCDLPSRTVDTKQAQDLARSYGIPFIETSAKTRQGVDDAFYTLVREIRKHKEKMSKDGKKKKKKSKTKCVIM
# KRAS G13C, sequence (P62937 whole entry): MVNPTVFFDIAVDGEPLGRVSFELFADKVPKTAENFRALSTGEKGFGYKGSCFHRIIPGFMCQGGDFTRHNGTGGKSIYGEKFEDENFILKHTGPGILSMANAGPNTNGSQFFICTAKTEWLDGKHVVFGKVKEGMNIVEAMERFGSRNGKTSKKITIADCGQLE
# Experimental: as §1, §2, §3, §4, §5
# [3] = molecular target: KRAS G12V (Homo sapiens (Human), UniProt P01116+P62937, G12V); experiment: as above; type: biochemical; details: read-out: KRAS G12V FRET IC50
# KRAS G12V, sequence (P01116 other isoform, or with tags, fused parts or gaps G12V): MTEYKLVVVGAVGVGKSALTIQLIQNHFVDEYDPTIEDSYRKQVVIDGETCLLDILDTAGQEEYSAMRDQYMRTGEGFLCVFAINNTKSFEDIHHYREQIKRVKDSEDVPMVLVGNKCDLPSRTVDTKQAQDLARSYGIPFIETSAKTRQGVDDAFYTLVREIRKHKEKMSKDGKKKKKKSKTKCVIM
# KRAS G12V, sequence (P62937 whole entry): as the sequence (P62937 whole entry) above
# Experimental: as §1, §2, §3, §4, §5
# [4] = molecular target: KRAS G13D (Homo sapiens (Human), UniProt P01116+P62937, G13D); experiment: as above; type: biochemical
# KRAS G13D, sequence (P01116 other isoform, or with tags, fused parts or gaps G13D): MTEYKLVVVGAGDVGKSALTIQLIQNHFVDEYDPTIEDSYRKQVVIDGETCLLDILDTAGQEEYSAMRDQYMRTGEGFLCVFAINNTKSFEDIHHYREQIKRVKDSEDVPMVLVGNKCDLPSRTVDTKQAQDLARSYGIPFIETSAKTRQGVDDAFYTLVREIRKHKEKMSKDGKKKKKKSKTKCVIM
# KRAS G13D, sequence (P62937 whole entry): as the sequence (P62937 whole entry) above
# Experimental: as §1, §2, §3, §4, §5
# [5] = molecular target: NRAS G12C (Homo sapiens (Human), UniProt P01111+P62937, G12C); experiment: as above; type: biochemical
# NRAS G12C, sequence (P01111 whole entry G12C): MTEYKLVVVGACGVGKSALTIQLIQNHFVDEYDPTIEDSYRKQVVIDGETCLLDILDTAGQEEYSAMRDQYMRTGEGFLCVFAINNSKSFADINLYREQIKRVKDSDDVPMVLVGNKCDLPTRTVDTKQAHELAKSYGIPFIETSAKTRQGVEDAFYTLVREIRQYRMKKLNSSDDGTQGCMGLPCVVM
# NRAS G12C, sequence (P62937 whole entry): as the sequence (P62937 whole entry) above
# Experimental: as §1, §2, §3, §4, §5
# [6] = molecular target: KRAS G12D (Homo sapiens (Human), UniProt P01116+P62937, G12D); experiment: as above; type: biochemical
# KRAS G12D, sequence (P01116 other isoform, or with tags, fused parts or gaps G12D): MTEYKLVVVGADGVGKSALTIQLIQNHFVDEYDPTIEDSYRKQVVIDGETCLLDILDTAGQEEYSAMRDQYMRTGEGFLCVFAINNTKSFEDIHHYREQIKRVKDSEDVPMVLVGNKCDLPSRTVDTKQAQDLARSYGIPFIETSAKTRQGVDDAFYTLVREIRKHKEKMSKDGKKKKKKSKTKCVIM
# KRAS G12D, sequence (P62937 whole entry): as the sequence (P62937 whole entry) above
# Experimental: as §1, §2, §3, §4, §5
# [7] = molecular target: KRAS WT (Homo sapiens (Human), UniProt P01116+P62937); experiment: as above; type: biochemical
# KRAS WT, sequence (P01116 other isoform, or with tags, fused parts or gaps): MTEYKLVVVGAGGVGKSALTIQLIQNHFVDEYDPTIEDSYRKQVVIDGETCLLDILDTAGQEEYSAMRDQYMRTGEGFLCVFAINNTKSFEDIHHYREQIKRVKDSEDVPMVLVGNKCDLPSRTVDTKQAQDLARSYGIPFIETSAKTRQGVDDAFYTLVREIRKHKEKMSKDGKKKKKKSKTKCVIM
# KRAS WT, sequence (P62937 whole entry): as the sequence (P62937 whole entry) above
# Experimental: as §1, §2, §3, §4, §5
# [8] = molecular target: KRAS G12C (Homo sapiens (Human), UniProt P01116+P62937, G12C); experiment: as above; type: biochemical
# KRAS G12C, sequence (P01116-2 other isoform, or with tags, fused parts or gaps G12C): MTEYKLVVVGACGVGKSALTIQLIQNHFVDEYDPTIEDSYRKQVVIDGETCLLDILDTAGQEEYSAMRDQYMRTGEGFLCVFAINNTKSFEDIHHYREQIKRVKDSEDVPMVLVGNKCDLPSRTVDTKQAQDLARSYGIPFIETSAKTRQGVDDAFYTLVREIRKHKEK
# KRAS G12C, sequence (P62937 whole entry): as the sequence (P62937 whole entry) above
# Experimental: as §1, §2, §3, §4, §5
# [9] = test system: Capan-1 cells (K-Ras G12V); experiment: CellTiter-Glo cell viability, Capan-1; type: cell-based, human; details: Homo sapiens, CAPAN-1, 120 h, read-out: Capan-1 Cell Viability IC50
# Experimental: Note—The following protocol describes a procedure for monitoring cell viability of K-Ras mutant cancer cell lines in response to a compound of the invention. Other RAS isoforms may be employed, though the number of cells to be seeded will vary based on cell line used.
# Test compounds (132.5 nl) were directly dispensed into the assay plates containing cells. […] On day 5, assay plates and their contents were equilibrated to room temperature for approximately 30 minutes. […] Luminescence was measured using the PerkinElmer Enspire. Data were normalized by the following: (Sample signal/Avg. DMSO)*100. The data were fit using a four-parameter logistic fit.
# [10] = read-out: KRAS G13D FRET data IC50
# [11] = read-out: NRAS G12C FRET data IC50
# [12] = read-out: KRAS WT FRET data IC50
# KRAS G12S, sequence (P01116 other isoform, or with tags, fused parts or gaps G12S): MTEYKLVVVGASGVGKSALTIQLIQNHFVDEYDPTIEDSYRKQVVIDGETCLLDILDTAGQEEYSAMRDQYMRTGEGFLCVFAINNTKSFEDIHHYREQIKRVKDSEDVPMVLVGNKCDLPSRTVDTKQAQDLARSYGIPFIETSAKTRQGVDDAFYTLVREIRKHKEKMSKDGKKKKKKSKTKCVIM
# KRAS G12S, sequence (P62937 whole entry): as the sequence (P62937 whole entry) above
pIC50 ([1]; read-out: KRAS G12S FRET IC50),pIC50 ([2]; read-out: KRAS G13C FRET IC50),pIC50 [3],"pIC50 [4, 10]","pIC50 [5, 11]",pIC50 ([6]; read-out: KRAS G12D FRET IC50),"pIC50 [7, 12]",pIC50 ([8]; read-out: KRAS G12C FRET IC50),Compound,"pIC50 ([9]; K-Ras G12V, 5-day treatment)",pIC50 ([1]; KRAS G12S FRET IC50),pIC50 ([2]; KRAS G13C FRET IC50),pIC50 ([4]; KRAS G13D FRET data IC50),pIC50 ([5]; NRAS G12C FRET data IC50),pIC50 ([6]; KRAS G12D FRET IC50),pIC50 ([7]; KRAS WT FRET data IC50),pIC50 ([8]; KRAS G12C FRET IC50),pIC50 [9]
6.00 to 7.00,6.00 to 7.00,5.00 to 6.00,6.00 to 7.00,6.00 to 7.00,6.00 to 7.00,6.00 to 7.00,6.00 to 7.00,CCn1c(-c2cnccc2COC)c2c3cc(ccc31)-c1cc(O)cc(c1)C[C@H](NC(=O)[C@H](C(C)C)N(C)C(=O)[C@@H]1CNC[C@@H]1C(F)(F)F)C(=O)N1CCC[C@H](N1)C(=O)OCC(C)(C)C2 [Compound A79],< 5.00,,,,,,,,
5.00 to 6.00,5.00 to 6.00,< 5.00,5.00 to 6.00,5.00 to 6.00,5.00 to 6.00,5.00 to 6.00,5.00 to 6.00,CCn1c(-c2cccnc2[C@H](C)OC)c2c3cc(ccc31)-c1csc(n1)C[C@H](NC(=O)[C@H](C(C)C)N(C)C(=O)[C@H]1CCN(CCO)C1)C(=O)N1CCC[C@H](N1)C(=O)OCC(C)(C)C2 [Compound A110],< 5.00,,,,,,,,
7.00 to 8.00,7.00 to 8.00,7.00 to 8.00,7.00 to 8.00,7.00 to 8.00,7.00 to 8.00,7.00 to 8.00,7.00 to 8.00,CCn1c(-c2cccnc2[C@H](C)OC)c2c3cc(ccc31)-c1cc(O)cc(c1)C[C@H](NC(=O)[C@H](C(C)C)N(C)C(=O)C1CC13CNC3)C(=O)N1CCC[C@H](N1)C(=O)OCC(C)(C)C2 (stereo partly shown) [Compound A140],< 5.00,,,,,,,,
6.00 to 7.00,7.00 to 8.00,,6.00 to 7.00,7.00 to 8.00,6.00 to 7.00,7.00 to 8.00,7.00 to 8.00,CCn1c(-c2cccnc2[C@H](C)OC)c2c3cc(ccc31)-c1cc(O)cc(c1)C[C@H](NC(=O)[C@H](C(C)C)N(C)C(=O)[C@@H]1C[C@@H]1F)C(=O)N1CCC[C@H](N1)C(=O)OCC(C)(C)C2 [Compound A160],6.00 to 7.00,,,,,,,,
5.00 to 6.00,6.00 to 7.00,5.00 to 6.00,5.00 to 6.00,5.00 to 6.00,< 5.00,5.00 to 6.00,5.00 to 6.00,CCn1c(-c2cccnc2[C@H](C)OC)c2c3cc(ccc31)-c1cc(O)cc(c1)C[C@H](NC(=O)C13CCCC1C3(F)F)C(=O)N1CCC[C@H](N1)C(=O)OCC(C)(C)C2 (stereo partly shown) [Compound A180],5.00 to 6.00,,,,,,,,
5.00 to 6.00,6.00 to 7.00,5.00 to 6.00,5.00 to 6.00,5.00 to 6.00,< 5.00,5.00 to 6.00,5.00 to 6.00,CCn1c(-c2cccnc2[C@H](C)OC)c2c3cc(ccc31)-c1cc(O)cc(c1)C[C@H](NC(=O)[C@H](C(C)C)N(C)C(=O)OCc1ccccc1)C(=O)N1CCC[C@H](N1)C(=O)OCC(C)(C)C2 [Compound A185],5.00 to 6.00,,,,,,,,
,,,,,,,,CCn1c(-c2cccnc2[C@H](C)OC)c2c3cc(ccc31)-c1cc(O)cc(c1)C[C@H](NC(=O)N1CCOCC1)C(=O)N1CCC[C@H](N1)C(=O)OCC(C)(C)C2 [Compound A199],,< 5.00,5.00 to 6.00,5.00 to 6.00,5.00 to 6.00,< 5.00,5.00 to 6.00,5.00 to 6.00,< 5.00
